Consider 30 compounds from patent US7560466B2, “Methods of treating or preventing autoimmune diseases with 2,4-pyrimidinediamine compounds” (Rigel Pharmaceuticals, Inc., priority 2003, dated 2009).

The structures appear in SMILES notation. Where two headings read alike, the source gives them in different places. Bounds are passed on as bounds.

This assay relates to cultured human mast cells (CHMC), IgE-induced degranulation. The assay is described as follows: CHMC low cell density IgE activation: tryptase assay. It counts as cell-based. In outline:
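Tryptase release read fluorogenically (30 min, room temperature) from supernatants of anti-IgE-challenged cultured human mucosal mast cells derived from umbilical cord CD34+ cells, at low density of 1000–1500 cells/well.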

The mark [1] stands for this setting: CHMC low cell density, 8pt, read-out: LD Tryptase, CHMC, IgE, 8pt.
The mark [2] stands for this setting: low cell density CHMC, 8-point, read-out: LD Tryptase, CHMC, IgE, 8pt.
Where [3] appears, read: low cell density CHMC, 3-point, read-out: LD Tryptase, CHMC, IgE, 3pt.

For `COc1cc(Nc2ncc(F)c(Nc3ccc4c(c3)NCC(C)(C)O4)n2)cc(OC)c1` [Compound 1002, N4-(3,4-Dihydro-2,2-dimethyl-4H-benz[1,4]oxazin-6-yl)-N2-(3,5-dimethoxyphenyl)-5-fluoro-2,4-pyrimidinediamine], the IC50 under setting [1] is less than 10 µM.

For the compound `CC(C)c1cccc(Nc2ncc(F)c(Nc3ccc4c(n3)NC(=O)C(C)(C)O4)n2)c1` [Compound 1003, N4-(2,2-Dimethyl-3-oxo-4H-5-pyrid[1,4]oxazin-6-yl)-5-fluoro-N2-(3-isopropylphenyl)-2,4-pyrimidinediamine], the IC50 (CHMC low cell density, 3pt, read-out: LD Tryptase, CHMC, IgE, 3pt) was less than 10 µM and the IC50 under setting [1] is less than 10 µM.

Regarding `CC1(C)Oc2ccc(Nc3nc(Nc4ccc(-c5ncco5)cc4)ncc3F)nc2NC1=O` [Compound 1035, N4-(2,2-Dimethyl-3-oxo-4H-5-pyrid[1,4]oxazin-6-yl)-5-fluoro-N2-[4-(oxazol-2-yl)phenyl]-2,4-pyrimidinediamine], under setting [2], the IC50 was more than 10 µM.

Regarding `COc1c(C)cc(Nc2ncc(F)c(Nc3ccc4c(n3)NC(=O)CO4)n2)cc1C` [Compound 1059, N2-(3,5-Dimethyl-4-methoxyphenyl)-5-fluoro-N4-(3-oxo-2H,4H-5-pyrid[1,4]oxazin-6-yl)-2,4-pyrimidinediamine], under setting [2], the IC50 was less than 10 µM.

With `COc1cccc(Nc2ncc(F)c(Nc3ccc4c(n3)NC(=O)CO4)n2)c1C` [Compound 1061, 5-Fluoro-N2-(3-methoxy-2-methylphenyl)-N4-(3-oxo-2H,4H-5-pyrid[1,4]oxazin-6-yl)-2,4-pyrimidinediamine], the IC50 under setting [2] was less than 10 µM.

Turning to `Cc1c(O)cccc1Nc1ncc(F)c(Nc2ccc3c(n2)NC(=O)CO3)n1` [Compound 1063, 5-Fluoro-N2-(3-hydroxy-2-methylphenyl)-N4-(3-oxo-2H,4H-5-pyrid[1,4]oxazin-6-yl)-2,4-pyrimidinediamine], the IC50 under setting [2] was less than 10 µM.

In the case of `Cc1c(O)cccc1Nc1ncc(F)c(Nc2ccc3c(n2)NC(=O)C(C)(C)O3)n1` [Compound 1064, N4-(2,2-Dimethyl-3-oxo-4H-5-pyrid[1,4]oxazin-6-yl)-5-fluoro-N2-(3-hydroxy-2-methylphenyl)-2,4-pyrimidinediamine], under setting [2], the IC50 was less than 10 µM.

`COc1cccc(Nc2ncc(F)c(Nc3ccc4c(n3)NC(=O)C(C)(C)O4)n2)c1C` [Compound 1065, N4-(2,2-Dimethyl-3-oxo-4H-5-pyrid[1,4]oxazin-6-yl)-5-fluoro-N2-(3-methoxy-2-methylphenyl)-2,4-pyrimidinediamine]: the IC50 under setting [3] is less than 10 µM.

Regarding `COC(=O)COc1cccc(Nc2ncc(F)c(Nc3ccc4c(c3)NC(=O)C(C)(C)O4)n2)c1C` [Compound 1066, N4-(2,2-Dimethyl-3-oxo-4H-benz[1,4]oxazin-6-yl)-5-fluoro-N2-[3-methoxycarbonylmethyleneoxy-2-methylphenyl]-2,4-pyrimidinediamine], the IC50 under setting [3] was less than 10 µM.

Consider `CNC(=O)COc1cccc(Nc2ncc(F)c(Nc3ccc4c(c3)NC(=O)C(C)(C)O4)n2)c1C` [Compound 1067, N4-(2,2-Dimethyl-3-oxo-4H-benz[1,4]oxazin-6-yl)-5-fluoro-N2-[2-methyl-3-(N-methylamino)carbonylmethyleneoxyphenyl]-2,4-pyrimidinediamine], for which the IC50 under setting [2] is less than 10 µM.

On to `CNC(=O)COc1cccc(Nc2ncc(F)c(Nc3ccc4c(n3)NC(=O)CO4)n2)c1C` [Compound 1068, 5-Fluoro-N2-[2-methyl-3-(N-methylamino)carbonylmethyleneoxyphenyl]-N4-(3-oxo-2H,4H-5-pyrid[1,4]oxazin-6-yl)-2,4-pyrimidinediamine], for which the IC50 under setting [2] was less than 10 µM.

For the compound `Cc1cc(Nc2ncc(F)c(Nc3ccc4c(n3)NC(=O)CO4)n2)cc(C)c1O` [Compound 1069, N2-(3,5-Dimethyl-4-hydroxyphenyl)-5-fluoro-N4-(3-oxo-2H,4H-5-pyrid[1,4]oxazin-6-yl)-2,4-pyrimidinediamine], the IC50 under setting [2] is less than 10 µM.

`CCOC(=O)N1CCN(c2cccc(Nc3ncc(F)c(Nc4ccc5c(n4)NC(=O)CO5)n3)c2)CC1` [Compound 1070, N2-[3-(4-Ethoxycarbonylpiperazino)phenyl]-5-fluoro-N4-(3-oxo-2H,4H-5-pyrid[1,4]oxazin-6-yl)-2,4-pyrimidinediamine]: under setting [2], the IC50 was less than 10 µM.

With `CC(=O)N1CCN(c2cccc(Nc3ncc(F)c(Nc4ccc5c(n4)NC(=O)CO5)n3)c2)CC1` [Compound 1071, N2-[3-(4-Acetylpiperazino)phenyl]-5-fluoro-N4-(3-oxo-2H,4H-5-pyrid[1,4]oxazin-6-yl)-2,4-pyrimidinediamine], under setting [2], the IC50 was less than 10 µM.

For the compound `CCOC(=O)N1CCN(c2ccc(Nc3ncc(F)c(Nc4ccc5c(n4)NC(=O)CO5)n3)cc2)CC1` [Compound 1072, N2-[4-(4-Ethoxycarbonylpiperazino)phenyl]-5-fluoro-N4-(3-oxo-2H,4H-5-pyrid[1,4]oxazin-6-yl)-2,4-pyrimidinediamine], under setting [2], the IC50 was less than 10 µM.

Regarding `O=C1COc2ccc(Nc3nc(Nc4cccc(N5CCOCC5)c4)ncc3F)nc2N1` [Compound 1073, 5-Fluoro-N2-(3-morpholinophenyl)-N4-(3-oxo-2H,4H-5-pyrid[1,4]oxazin-6-yl)-2,4-pyrimidinediamine], the IC50 under setting [2] was less than 10 µM.

For `CN1CCN(c2cccc(Nc3ncc(F)c(Nc4ccc5c(n4)NC(=O)CO5)n3)c2)CC1` [Compound 1074, 5-Fluoro-N2-[3-(4-methylpiperazion)phenyl]-N4-(3-oxo-2H,4H-5-pyrid[1,4]oxazin-6-yl)-2,4-pyrimidinediamine], under setting [2], the IC50 is less than 10 µM.

For `CCOC(=O)N1CCN(c2cccc(Nc3ncc(F)c(Nc4ccc5c(n4)NC(=O)C(C)(C)O5)n3)c2)CC1` [Compound 1075, N4-(2,2-Dimethyl-3-oxo-4H-5-pyrid[1,4]oxazin-6-yl)-N2-[3-(4-ethoxycarbonylpiperazino)phenyl]-5-fluoro-2,4-pyrimidinediamine], under setting [2], the IC50 is less than 10 µM.

Consider `CC(=O)N1CCN(c2cccc(Nc3ncc(F)c(Nc4ccc5c(n4)NC(=O)C(C)(C)O5)n3)c2)CC1` [Compound 1076, N2-[3-(4-Acetylpiperazino)phenyl]-N4-(2,2-dimethyl-3-oxo-4H-5-pyrid[1,4]oxazin-6-yl)-5-fluoro-2,4-pyrimidinediamine], for which the IC50 under setting [2] was less than 10 µM.

For `CCOC(=O)N1CCN(c2ccc(Nc3ncc(F)c(Nc4ccc5c(n4)NC(=O)C(C)(C)O5)n3)cc2)CC1` [Compound 1077, N4-(2,2-Dimethyl-3-oxo-4H-5-pyrid [1,4]oxazin-6-yl)-N2-[4-(4-ethoxycarbonylpiperazino)phenyl]-5-fluoro-2,4-pyrimidinediamine], the IC50 under setting [2] was less than 10 µM.

For the compound `CC1(C)Oc2ccc(Nc3nc(Nc4cccc(N5CCOCC5)c4)ncc3F)nc2NC1=O` [Compound 1078, N4-(2,2-Dimethyl-3-oxo-4H-5-pyrid[1,4]oxazin-6-yl)-5-fluoro-N2-(3-morpholinophenyl)-2,4-pyrimidinediamine], the IC50 under setting [2] is less than 10 µM.

With `CNC(=O)COc1cccc(Nc2ncc(F)c(Nc3ccc4c(n3)NC(=O)C(C)(C)O4)n2)c1C` [Compound 1079, N4-(2,2-Dimethyl-3-oxo-4H-5-pyrid [1,4]oxazin-6-yl)-5-fluoro-N2-[2-methyl-3-(N-methylamino)carbonylmethyleneoxyphenyl]-2,4-pyrimidinediamine], under setting [2], the IC50 is less than 10 µM.

Regarding `CN1CCN(c2cccc(Nc3ncc(F)c(Nc4ccc5c(n4)NC(=O)C(C)(C)O5)n3)c2)CC1` [Compound 1080, N4-(2,2-Dimethyl-3-oxo-4H-5-pyrid [1,4]oxazin-6-yl)-5-fluoro-N2-[3-(4-methylpiperazino)phenyl]-2,4-pyrimidinediamine], under setting [2], the IC50 is less than 10 µM.

`COc1ccc(Nc2ncc(F)c(Nc3ccc4c(n3)NC(=O)[C@H](C)O4)n2)cc1Cl` [Compound 1081, (S)—N2-(3-Chloro-4-methoxyphenyl)-5-fluoro-N4-(2-methyl-3-oxo-2H,4H-5-pyrid[1,4]oxazin-6-yl)-2,4-pyrimidinediamine]: the IC50 is less than 10 µM under setting [3] and less than 10 µM under setting [2].

On to `COc1cc(Nc2ncc(F)c(Nc3ccc4c(n3)NC(=O)[C@H](C)O4)n2)cc(OC)c1OC` [Compound 1082, (S)-5-Fluoro-N4-(2-methyl-3-oxo-2H,4H-5-pyrid[1,4]oxazin-6-yl)-N2-(3,4,5-trimethoxyphenyl)-2,4-pyrimidinediamine], for which the IC50 was less than 10 µM under setting [3] and less than 10 µM under setting [2].

`Cc1cc(C)cc(Nc2ncc(F)c(Nc3ccc4c(n3)NC(=O)[C@H](C)O4)n2)c1` [Compound 1084, (S)—N2-(3,5-Dimethylphenyl)-5-fluoro-N4-(2-methyl-3-oxo-2H,4H-5-pyrid[1,4]oxazin-6-yl)-2,4-pyrimidinediamine]: the IC50 reads like this: under setting [3], more than 10 µM; under setting [2], less than 10 µM.

With `Fc1cnc(Nc2cccc(-c3cnco3)c2)nc1Nc1ccc2c(n1)NCCO2` [Compound 1132, N4-(3,4-Dihydro-2H,4H-5-pyrid[1,4]oxazin-6-yl)-5-fluoro-N2-[3-(oxazol-5-yl)phenyl]-2,4-pyrimidinediamine], the IC50 under setting [2] is less than 10 µM.

For `CC(=O)N1CCN(c2ccc(Nc3ncc(F)c(Nc4ccc5c(n4)NCCO5)n3)cc2)CC1` [Compound 1134, N2-[4-(4-Acetylpiperazino)phenyl]-N4-(3,4-dihydro-2H,4H-5-pyrid[1,4]oxazin-6-yl)-5-fluoro-2,4-pyrimidinediamine], the IC50 under setting [3] was less than 10 µM and the IC50 under setting [2] was less than 10 µM.

On to `CCOC(=O)N1CCN(c2ccc(Nc3ncc(F)c(Nc4ccc5c(n4)NCCO5)n3)cc2)CC1` [Compound 1135, N4-(3,4-Dihydro-2H,4H-5-pyrid[1,4]oxazin-6-yl)-N2-[4-(4-ethoxycarbonylpiperazino)phenyl]-5-fluoro-2,4-pyrimidinediamine], for which the IC50 was less than 10 µM under setting [3] and less than 10 µM under setting [2].

Regarding `Fc1cnc(Nc2cccc(N3CCOCC3)c2)nc1Nc1ccc2c(n1)NCCO2` [Compound 1136, N4-(3,4-Dihydro-2H,4H-5-pyrid[1,4]oxazin-6-yl)-5-fluoro-N2-(3-morpholinophenyl)-2,4-pyrimidinediamine], the IC50 runs as follows: under setting [3], less than 10 µM; under setting [2], less than 10 µM.
